Literature values, collected in patent US20090306403A1, “Production Process for Bicyclic Tetrahydropyrrole Compounds” (priority 2006, published 2009).

Tests used:
sigma (σ-2) site = sigma (σ-2) site (Homo sapiens, UniProt Q5BJF2); details: background statement in words
sigma 1 (σ-1) site = sigma 1 (σ-1) site (Homo sapiens, UniProt Q99720); details: background statement in words
Chain of sigma 1 (σ-1) site (Q99720 whole entry): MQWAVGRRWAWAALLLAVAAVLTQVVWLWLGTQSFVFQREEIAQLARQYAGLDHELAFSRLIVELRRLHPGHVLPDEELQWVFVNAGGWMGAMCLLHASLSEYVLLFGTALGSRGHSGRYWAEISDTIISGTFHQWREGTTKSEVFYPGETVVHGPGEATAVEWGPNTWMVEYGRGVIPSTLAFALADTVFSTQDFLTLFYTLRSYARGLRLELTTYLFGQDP

Chain of sigma (σ-2) site (Q5BJF2 whole entry): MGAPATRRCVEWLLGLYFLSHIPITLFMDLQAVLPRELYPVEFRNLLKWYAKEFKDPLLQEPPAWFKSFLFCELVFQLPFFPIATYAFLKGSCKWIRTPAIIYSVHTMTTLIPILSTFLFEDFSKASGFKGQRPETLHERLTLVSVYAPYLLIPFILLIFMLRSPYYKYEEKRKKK

## SKF 10047
Sigma (σ-2) site
  affinity for the sigma (σ-2) site: micromolar affinity
Sigma 1 (σ-1) site
  affinity for the sigma 1 (σ-1) site: nanomolar affinity
